For 15 compounds, TGI results are on record in PubChem BioAssay (NCI).

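Growth conditions: 96-well plates. Treatment: test compound, 48 hours, 5 concentrations. Analysis: linear interpolation between bracketing concentrations; unreached endpoints set to highest concentration. TGI denotes the concentration required for complete inhibition of growth.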

What all share (experiment): growth of human tumour cells (NCI), 48 h
The test system of assay [1] is K-562 leukemia.
The subject of assay [2] is SF-268 CNS.
The subject of assay [3] is SK-MEL-5 melanoma.
Assay [4] concerns SF-295 CNS.
Assay [5] has as its system HS 578T breast.
Assay [6] concerns MDA-MB-231 breast.
Assay [7] has as its system PC-3 prostate.
The subject of assay [8] is SN12C renal.
Assay [9] relates to DU-145 prostate.
In assay [10] the test system is RXF 393 renal.
Assay [11] deals with SW-620 colon.
Assay [12] relates to CCRF-CEM leukemia.
In assay [13] the test system is OVCAR-3 ovarian.
Assay [14] has as its system UACC-62 melanoma.
Assay [15] concerns SR leukemia.
The test system of assay [16] is NCI-H460 lung.
The test system of assay [17] is NCI-H522 lung.
For assay [18], the system named is MDA-MB-435.
For assay [19], the system named is IGROV1 ovarian.

Take `CN(N=O)c1nc2c(C(N)=O)ncn2s1`: the TGI in [1], in assay [2], in assay [3], in assay [4], in assay [5] and in assay [6] was greater than 100 µM throughout. The TGI in [7], in [8], in [9], in assay [10], in [11] and in assay [12] was greater than 100 µM in each case. Further, the TGI in [13], in assay [14], in assay [15], in assay [16], in assay [17] and in [18] was greater than 100 µM in each case. Further, the TGI in assay [19] was greater than 100 µM.
With `O=C1NC(N/N=C\c2ccccc2)=N/C1=C/c1ccccc1`, the TGI in assay [1] was greater than 100 µM; in assay [2], greater than 100 µM; in assay [3], greater than 100 µM; in assay [4], greater than 100 µM; in [5] it was 80.7 µM; in [6], greater than 100 µM. Also, the TGI in [7] was 98.4 µM; in [8] it was greater than 100 µM; in [9], 78.8 µM; in assay [10], 73.1 µM; in assay [11], greater than 100 µM; in assay [12], greater than 100 µM. For the same compound, the TGI in assay [13] is 94.9 µM; in [15], 53.9 µM; in assay [16] it was greater than 100 µM; in [17], 87 µM; in assay [18], greater than 100 µM; in assay [19] it was greater than 100 µM.
In the case of `CCOP(=O)(O)C(Nc1ccc(N=Nc2ccccc2)cc1)c1cccc(C(Nc2ccc(N=Nc3ccccc3)cc2)P(=O)(O)OCC)c1` (centres undefined), the TGI in assay [1] was 40 µM; in assay [2], greater than 100 µM; in assay [3] it was greater than 100 µM; in assay [4], 58.1 µM; in assay [5], greater than 100 µM; in assay [6] it was greater than 100 µM. Besides, the TGI in assay [7] is 67.5 µM; in assay [8] it was greater than 100 µM; in assay [9], greater than 100 µM; in assay [10], greater than 100 µM; in assay [11], greater than 100 µM; in [12], 96.7 µM. The TGI in assay [13] was greater than 100 µM; in [14] it was 78.1 µM; in assay [15], greater than 100 µM; in assay [16], greater than 100 µM; in assay [17], greater than 100 µM; in assay [18], greater than 100 µM. This compound also showed a TGI in assay [19] greater than 100 µM.
Turning to `CCCc1nc2c(n1CC)C(=O)c1ccccc1C2=O`, the TGI in assay [1] was greater than 100 µM; in assay [2] it was greater than 100 µM; in assay [3], 88.7 µM; in assay [4], greater than 100 µM; in [5], greater than 100 µM; in assay [6] it was greater than 100 µM. Besides, the TGI is greater than 100 µM in assay [7]; greater than 100 µM in [8]; greater than 100 µM in assay [9]; 69.1 µM in assay [10]; greater than 100 µM in assay [11]; greater than 100 µM in assay [12]. The TGI in assay [13] is greater than 100 µM; in [14], greater than 100 µM; in [15], greater than 100 µM; in assay [16] it was greater than 100 µM; in assay [17], greater than 100 µM; in [18], 32.3 µM. Also, the TGI in assay [19] was greater than 100 µM.
For the compound `O=[N+]([O-])c1ccc(-c2nn3c(C45CC6CC(CC(C6)C4)C5)nnc3s2)c(Cl)c1`, the TGI in assay [1], in assay [2], in assay [3], in assay [4], in [5] and in assay [6] was greater than 100 µM in each case. The TGI in [7], in [8], in assay [9], in [10], in assay [11] and in assay [12] was greater than 100 µM in each case. The TGI in assay [13], in assay [14], in assay [15], in assay [16], in assay [17] and in assay [18] was greater than 100 µM throughout. This compound returned a TGI in assay [19] greater than 100 µM.
As for `O=C1CSC(c2ccccc2O)N1c1ccc(-n2c(-c3ccccc3)nc3ccccc3c2=O)cc1` (centres undefined), the TGI was greater than 100 µM in [1]; greater than 100 µM in assay [2]; 35.9 µM in assay [3]; 50.5 µM in [4]; greater than 100 µM in assay [5]; 37.5 µM in [6]. For the same compound, the TGI in assay [7] was 58.7 µM; in [8], greater than 100 µM; in assay [9] it was greater than 100 µM; in [10], greater than 100 µM; in [11], greater than 100 µM; in [12] it was greater than 100 µM. Also, the TGI was 41.5 µM in assay [13]; 90.3 µM in [14]; greater than 100 µM in assay [15]; 50.8 µM in assay [16]; 66 µM in assay [17]; 81.5 µM in assay [18]. The compound also gave a TGI in assay [19] of 93.9 µM.
In the case of `Cc1c(/C=N/NC(=S)N2CCCCC2)c(=O)n(-c2ccccc2)n1C`, the TGI in [1], in [2], in assay [3], in [4], in assay [5] and in assay [6] was greater than 100 µM in each case. The TGI in assay [7] is greater than 100 µM; in assay [9], greater than 100 µM; in assay [10], 97.3 µM; in assay [11] it was greater than 100 µM; in assay [12], greater than 100 µM; in [13], greater than 100 µM. For the same compound, the TGI in assay [14], in [15], in assay [16], in assay [17], in assay [18] and in assay [19] was greater than 100 µM in each case.
`CC(C)[Si]1(C(C)C)OCC2OC(n3ccc(=O)[nH]c3=O)C([Se]c3ccccc3)C2O[Si](C(C)C)(C(C)C)O1` (centres undefined): the TGI in assay [2] worked out at 10.3 µM; in assay [3], 9.59 µM; in assay [4] it was 18 µM; in [5], 5.46 µM; in [6], 7.79 µM; in assay [7], 11.9 µM. Also, the TGI in assay [8] is 5.57 µM; in assay [9], 24.7 µM; in assay [10] it was 9.65 µM; in assay [11] it was 6.62 µM; in assay [12], greater than 24.4 µM; in [13], 9.73 µM. Besides, the TGI in [14] turned out to be 14.8 µM; in assay [15], 27.1 µM; in assay [16], 3.89 µM; in assay [17] it was 4.36 µM; in assay [18], 17.3 µM; in assay [19] it was 9.49 µM.
Consider `COC(=O)[C@@](NC(=O)OCc1ccccc1)([C@H](C)O)C(F)(F)F`, for which the TGI in assay [1], in [2], in assay [3], in [4], in [5] and in [6] was greater than 100 µM throughout. Moreover, the TGI in [7], in assay [9], in assay [10], in assay [11], in assay [12] and in assay [13] was greater than 100 µM throughout. The TGI in [14], in assay [15], in [16], in assay [17], in [18] and in assay [19] was greater than 100 µM in each case.
Take `Nc1ccccc1C(=O)N=Nc1c(O)[nH]c2ccccc12`: the TGI in assay [1] was greater than 100 µM; in [2] it was greater than 100 µM; in assay [3] it was greater than 100 µM; in assay [4], greater than 100 µM; in [5], 73.8 µM; in assay [6] it was greater than 100 µM. In addition, the TGI in [7], in assay [8], in [9], in assay [10], in assay [12] and in assay [13] was greater than 100 µM in each case. For the same compound, the TGI in [14], in assay [15], in assay [16], in assay [17], in assay [18] and in assay [19] was greater than 100 µM throughout.
Take `CCOC(=O)C(=CNc1ccc(F)c(F)c1)C(=O)OCC`: the TGI in [1], in [2], in [3], in [5], in assay [6] and in [7] was greater than 100 µM each time. For the same compound, the TGI in [8], in assay [9], in assay [10], in [11], in assay [12] and in assay [13] was greater than 100 µM each time. Moreover, the TGI in assay [15], in [16], in assay [17], in assay [18] and in [19] was greater than 100 µM each time.
Consider `O=[N+]([O-])c1cccc2nccc(NCCN3CCOCC3)c12`, for which the TGI in assay [1] is greater than 56.7 µM; in assay [2], greater than 66.7 µM; in [3], 22.3 µM; in assay [4], 25.6 µM; in assay [5], 57.6 µM; in assay [6], 71.1 µM. Further, the TGI is 39.1 µM in [7]; greater than 48 µM in assay [8]; greater than 100 µM in [9]; 31.9 µM in assay [10]; 33.7 µM in assay [11]; greater than 64.8 µM in [12]. Further, the TGI in assay [13] is 25.2 µM; in assay [15], greater than 31.4 µM; in [16], 32.5 µM; in assay [17] it was 22 µM; in assay [18], 81.8 µM; in assay [19], 45.1 µM.
For `CC(C)OP(=O)(OC(C)C)C(C)(C)O`, the TGI in [1], in [2], in assay [3], in [4], in [5] and in [6] was greater than 100 µM throughout. The TGI in assay [7], in [8], in [9], in [10], in [11] and in assay [12] was greater than 100 µM each time. In addition, the TGI in [13], in [14], in [15], in assay [17], in [18] and in [19] was greater than 100 µM each time.
For `CCOC(=O)c1nc2ccc(C(F)(F)F)cc2nc1Nc1ccc(OC)cc1`, the TGI is greater than 100 µM in assay [1]; greater than 100 µM in assay [2]; greater than 100 µM in assay [3]; 77.6 µM in assay [4]; greater than 100 µM in assay [5]; 50.6 µM in assay [6]. The TGI in [7] was greater than 100 µM; in assay [9], greater than 100 µM; in [10] it was 70.1 µM; in assay [11], greater than 100 µM; in assay [12], greater than 100 µM; in [13], greater than 100 µM. Also, the TGI in [14], in assay [15], in assay [16], in [17], in assay [18] and in assay [19] was greater than 100 µM each time.
Regarding `Cc1[nH]c(-c2ccccc2)c2nc(N(C)C)oc(=O)c12`, the TGI in assay [1], in [2], in assay [3], in [4], in assay [5] and in assay [6] was greater than 100 µM in each case. The TGI in assay [7], in assay [8], in assay [9], in assay [10], in assay [11] and in assay [12] was greater than 100 µM each time. Moreover, the TGI in assay [14], in [15], in [16], in assay [17], in [18] and in [19] was greater than 100 µM each time.
